Experimental data published in patent publication US20050148523A1, “Method of treating HIV infection in atazanavir-resistant patients using a combination of atazanavir and another protease inhibitor” (priority 2003, published 2005).

Assays:
[1] = test system: HIV-1 in treatment naive patients; test: Clinical study AI424-034, virological outcomes and resistance; type: in vivo, human; settings: study 034
From the text: (§1) Study Population. Viral samples (baseline and on-treatment, where available) were obtained from patients who experienced virologic failure while enrolled in studies AI424-007/041 [12] (ATV+d4T and ddI), AI424-008/044 [13, 14] (ATV+d4T and 3TC) and AI424-034 [9] (ATV or EFV in combination with ZDV and 3TC). […] In general, virologic failure specimens were selected for further resistance evaluation only if they contained >1,000 copies/mL HIV-1 RNA and there was no indication that the specimen came from a patient at a time of transient non-adherence to study drug(s). […] For non-responders, samples from week 16 (or 24) were tested. Drug adherence was determined from pill counts of returned study medications at each scheduled visit.
(§2) ATV resistance was defined as ≧2-fold decrease in ATV susceptibility from baseline, a Fold Change (FC) of ≧2.5 (relative to the Nl4-3 reference strain), or evidence of an isoleucine (Ile) to leucine (Leu) change at amino acid residue 50 (I50L). Resistance levels for NFV and EFV were also defined as a FC reaching 2.5.

[2] = test system: HIV-1 in treatment naive patients; test: Clinical study AI424-007/041, virological outcomes and resistance; type: in vivo, human; settings: study 007/041
From the text: as §1, §2

[3] = test system: recombinant HIV-1 viruses (NL4-3, RF, LAI) in MT-2 cells; test: MT-2 cell susceptibility assay of recombinant viruses; type: cell-based; settings: all three viral strains, I50L or I50L/A71V introduced by site-directed mutagenesis
Protocol: Cells and Viruses. MT-2 cells, HIV-1 RF, HIV1-LAI, and the HIV-1 NL4-3 proviral clones were obtained through the AIDS Research and Reference Reagent Program, National Institutes of Health. MT-2 cells were cultured in RPMI 1640 medium supplemented with 10% fetal bovine serum, 2 mM L-glutamine, and 10 mM Hepes buffer. HIV-1 viruses were generated by transient transfection of the proviral DNA into Human Embryonic Kidney 293 cells using Lipofectamine reagents (Gibco BRL). The viruses were harvested 72 hr post-transfection, amplified in MT-2 cells, and titered in the same cells using a virus yield assay.
Recombinant HIV-1 Variants and Chimeric NL4-3 Proviral Clones. HIV-1 strains with defined substitutions in the protease gene were generated by QuikChange® site-directed mutagenesis as recommended by the manufacturer (Stratagene). Recombinant NL4-3 and LAI proviral clones containing the wild-type and mutant protease genes from RF and clinical isolates were constructed by replacing the SseI/ApaI fragment of pNL4-3 with the appropriate SseI/ApaI protease fragments.
Recombinant viruses (generated separately from those made for PhenoSense assays) were tested in an MT-2 cell susceptibility assay at Bristol Myers Squibb. MT-2 cells were infected with recombinant viruses at a multiplicity of infection (MOI) of 0.005 50% tissue culture infective doses (TCID50)/cell followed by incubation in the presence or absence of serially diluted protease inhibitors for 4 to 7 days. Virus yields were quantified using a RT assay as previously described. The results from at least four independent experiments were used to calculate the EC50.

[4] = test system: clinical isolates containing a D30N substitution; test: PhenoSense phenotypic susceptibility of clinical isolates containing D30N; type: cell-based, HIV-1; settings: 75 D30N containing isolates, FIG. 3
Protocol: (§3) Drug Susceptibility Assays. Clinical isolates were subjected to phenotypic (PhenoSense™) and genotypic (GeneSeq™) analysis by Virologic, Inc. as described elsewhere.
Comparative Studies of I50L and D30N Containing Viruses. […] Comparative studies were performed on the 18 phenotyped viruses containing an I50L and 75 clinical isolates containing a D30N substitution without evidence of cross-resistance (FC≧2.5) to other PIs.

[5] = test system: HIV-1 in treatment naive patients; test: Clinical study AI424-008/044, virological outcomes and resistance; type: in vivo, human; settings: study 008/044
From the text: as §1, §2

[6] = test system: clinical isolates containing an I50L substitution (and their baseline isolates); test: PhenoSense phenotypic susceptibility of clinical isolates from ATV-treated patients who developed I50L; type: cell-based, HIV-1
From the text: as §1, §3

Structure (SMILES)	Virologic Failures (%) [1] [%]	Virologic Failures, number [1]	Virologic Failures (%) [2] [%]	Virologic Failures, number [2]	change in susceptibility [3]	median FC [4]	Virologic Failures (%) [5] [%]	Virologic Failures, number [5]	Susceptibility, Fold Change in EC50 relative to reference strain ([6]; Subject 076, Week 80) [Fold Change]	Susceptibility, Fold Change in EC50 relative to reference strain ([6]; Subject 076, Week 92) [Fold Change]	Susceptibility, Fold Change in EC50 relative to reference strain ([6]; Subject 100, Week 1.7) [Fold Change]	Susceptibility, Fold Change in EC50 relative to reference strain ([6]; Subject 169, Week 0.1) [Fold Change]	Susceptibility, Fold Change in EC50 relative to reference strain ([6]; Subject 169, Week 90) [Fold Change]	Susceptibility, Fold Change in EC50 relative to reference strain ([6]; Subject 169, Week 102) [Fold Change]	Subceptibility, Fold Change in EC50 relative to reference strain ([6]; Subject 169, Week 114) [Fold Change]	Susceptibility, Fold Change in EC50 relative to reference strain ([6]; Subject 362, Week 0.1) [Fold Change]	Susceptibility, Fold Change in EC50 relative to reference strain ([6]; Subject 362, Week 108) [Fold Change]	percentage of baseline isolates exhibiting a FC≦0.4 ([6]; baseline isolates) [%]	median increase in susceptibility from baseline ([6]; on emergence of I50L, n=4 to 15) [fold]	percentage of I50L isolates with susceptibility (FC) 0.4-fold or lower ([6]; relative to the reference strain) [%]
O=C1Nc2ccc(Cl)cc2[C@@](C#CC2CC2)(C(F)(F)F)O1 [EFV, efavirenz]	17	69																		
Cc1c(O)cccc1C(=O)N[C@@H](CSc1ccccc1)[C@H](O)CN1C[C@H]2CCCC[C@H]2C[C@H]1C(=O)NC(C)(C)C [NFV, nelfinavir]			23	18	enhanced susceptibility	resistance	30	27	0.4	0.6	2.1	1.0	0.5	0.5	0.7	2.3	1.1	0	1.6	33
